Experimental data from patent publication US12286443B2, “Bycyclic JAK inhibitors and uses thereof” (Insilico Medicine IP Limited, priority 2019, dated 2025).

system: Hut-78 cells; assay: Inhibition in Hut-78 cells (IL-2 stimulated, HTRF); format: cell-based; details: Homo sapiens, HuT78, read-out: Hut-78 cells IC50 (μM)
Protocol: Exemplary compounds were assayed to determine potency in inhibiting Hut-78 cells by determining IC50 values.
Hut-78 cells were cultures in IMDM+20% FBS medium. Cells were maintained in log phase before the assay. Cell pellets were collected and resuspended in serum-free and phenol-free RPMI 1640 medium. 40,000 cells/well (10 μL) were seeded in each well of a 384-well plate and incubated with and without compound for 2 hours at 37° C. and 5% C02. IL-2 was added (2 μL, final concentration 100 ng/mL) and the mixture was incubated for 10 min. Cells were lysed by adding 4 μL labeled antibodies and the mixture was incubated overnight. The plate was read using the HTRF protocol on an Envision plate reader. The data was analyzed using XL-fit software (Supplier: ID business solutions Ltd.; Software version: XL fit 5.0). Inhibition %=(Max−Sample value)/(Max−Min)*100.
In the table, “A” indicates an IC50 of less than 0.5 μM, “B” indicates an IC50 range from 0.5 μM to 1 μM; and “C” indicates an IC50 range from 1 μM to 10 μM. Also, “na” indicates data is not available.

| SMILES | IC50 |
| --- | --- |
| O=C(NCC(F)(F)F)c1noc2c1CN(c1ncnc3[nH]ccc13)CC2 [Compound 178] | 0.5 to 1 µM |

same assay, conditions: Homo sapiens, HuT78; compound 2 hours at 37° C., then IL-2 100 ng/mL 10 min; HTRF; read-out: Hut-78 cells IC50

| SMILES | IC50 |
| --- | --- |
| COCCn1nc(C(=O)NCCC(F)(F)F)c2c1CCN(c1ncnc3[nH]ccc13)C2 [Compound 104] | 0.5 to 1 µM |
| O=C(NCCC(F)(F)F)c1nn(Cc2ccncc2)c2c1CN(c1ncnc3[nH]ccc13)CC2 [Compound 105] | 0.5 to 1 µM |

Results, then the compound that gave them:

| IC50 | SMILES |
| --- | --- |
| 1 to 10 µM | CCS(=O)(=O)n1nc(C(=O)NCCC(F)(F)F)c2c1CCN(c1ncnc3[nH]ccc13)C2 [Compound 102] |
| 1 to 10 µM | O=C(NCCC(F)(F)F)c1nn(C(=O)CCc2ccccc2)c2c1CN(c1ncnc3[nH]ccc13)CC2 [Compound 103] |

biological target: T1, TYK2 (Homo sapiens, UniProt P29597); assay: Inhibition of TYK2 kinase, LANCE Ultra TR-FRET assay; format: biochemical; details: 4 nM TYK2, 2x ATP 30 μM, 15 min pre-incubation, 90 min reaction, 23° C., read-out: tyk IC50
T1 construct: purchased Invitrogen PR8440C
Protocol: (§1) Exemplary compounds were assayed to determine potency in inhibiting activity of JAK1-3 and TYK2 kinases by determining IC50 values.
(§2) The sources of test materials and equipment are as follows: JAK1 (Invitrogen, Cat. No PV4775), JAK2 (Invitrogen, Cat. No PV4210), JAK3 (Invitrogen, Cat. No PV4080), TYK2 (Invitrogen, Cat. No PR8440C), ATP (Sigma, Cat. No. A7699-1G), DMSO (Sigma, Cat. No. D2650), DTT (Sigma, Cat. No. 43815), 384 wells_compound plate (Greiner, Cat. No. 781280), 384 wells_assay plate (Perkin Elmer, Cat. No. 6007299), LANCE Ultra ULight™-JAK-1 peptide (Perkin Elmer, Cat. No. TRF0121), LANCET™ Eu-W1024 Anti-phosphotyrosine (PT66) (Perkin Elmer, Cat. No. AD0069), LANCET™ Detection Buffer(Perkin Elmer, Cat. No. CR97-100).
(§3) The concentrations of test compounds varied from 100 μM to 1.7 nM with 3-fold dilution, 11 points, in duplicates while the concentrations of the reference compound, Tofacitinib, varied from 1 μM to 0.017 nM with 3-fold dilution, 11 points, in duplicates.
(§4) The assay buffer contained 50 mM HEPES (pH 7.5), 0.01% Brij-35, 10 mM MgCl2, 1 mM EDTA, 2 mM DTT. Incubations were carried out at 23° C.
(§5) Prior to the assay, enzyme, peptide substrate and serially diluted test compounds were pre-incubated together in assay buffer (5 μL) for 15 minutes (peptide substrate concentration: 50 nM; JAK enzyme concentrations: 2 nM JAK1; […]; […] and 4 nM TYK2). And the assay was initiated by the addition of 5 μL assay buffer containing 2× final ATP concentration (these are the 2×ATP concentrations: 76 μM JAK1; 24 μM JAK2; 8 μM JAK3 and 30 μM TYK2). Following the 90-minute incubation, antibody conjugated with Eu is dissolved in detection buffer to add into wells and then incubated for 60 minutes. The 10 μL detection buffer contains EDTA to stop the enzymatic reaction. The plate is analyzed by Perkin Elmer Envision on TR-FRET mode. The high ratio of 665/615 represents no inhibition of kinase reaction while the low ratio of 665/615 represents complete inhibition of kinase reaction.
(§6) Curves are fit by XLFIT5 as inhibition rate % vs. log [compound concentration] using 4 parameters logistic model 205.
(§7) In the table, “A” indicates an IC50 of less than 100 nM, “B” indicates an IC50 range from 100 nM to 500 nM; “C” indicates an IC50 range from 500 nM to 2 μM; and “D” indicates an IC50 greater than 2 μM. Also, “na” indicates data is not available.

T1 sequence (P29597 whole entry): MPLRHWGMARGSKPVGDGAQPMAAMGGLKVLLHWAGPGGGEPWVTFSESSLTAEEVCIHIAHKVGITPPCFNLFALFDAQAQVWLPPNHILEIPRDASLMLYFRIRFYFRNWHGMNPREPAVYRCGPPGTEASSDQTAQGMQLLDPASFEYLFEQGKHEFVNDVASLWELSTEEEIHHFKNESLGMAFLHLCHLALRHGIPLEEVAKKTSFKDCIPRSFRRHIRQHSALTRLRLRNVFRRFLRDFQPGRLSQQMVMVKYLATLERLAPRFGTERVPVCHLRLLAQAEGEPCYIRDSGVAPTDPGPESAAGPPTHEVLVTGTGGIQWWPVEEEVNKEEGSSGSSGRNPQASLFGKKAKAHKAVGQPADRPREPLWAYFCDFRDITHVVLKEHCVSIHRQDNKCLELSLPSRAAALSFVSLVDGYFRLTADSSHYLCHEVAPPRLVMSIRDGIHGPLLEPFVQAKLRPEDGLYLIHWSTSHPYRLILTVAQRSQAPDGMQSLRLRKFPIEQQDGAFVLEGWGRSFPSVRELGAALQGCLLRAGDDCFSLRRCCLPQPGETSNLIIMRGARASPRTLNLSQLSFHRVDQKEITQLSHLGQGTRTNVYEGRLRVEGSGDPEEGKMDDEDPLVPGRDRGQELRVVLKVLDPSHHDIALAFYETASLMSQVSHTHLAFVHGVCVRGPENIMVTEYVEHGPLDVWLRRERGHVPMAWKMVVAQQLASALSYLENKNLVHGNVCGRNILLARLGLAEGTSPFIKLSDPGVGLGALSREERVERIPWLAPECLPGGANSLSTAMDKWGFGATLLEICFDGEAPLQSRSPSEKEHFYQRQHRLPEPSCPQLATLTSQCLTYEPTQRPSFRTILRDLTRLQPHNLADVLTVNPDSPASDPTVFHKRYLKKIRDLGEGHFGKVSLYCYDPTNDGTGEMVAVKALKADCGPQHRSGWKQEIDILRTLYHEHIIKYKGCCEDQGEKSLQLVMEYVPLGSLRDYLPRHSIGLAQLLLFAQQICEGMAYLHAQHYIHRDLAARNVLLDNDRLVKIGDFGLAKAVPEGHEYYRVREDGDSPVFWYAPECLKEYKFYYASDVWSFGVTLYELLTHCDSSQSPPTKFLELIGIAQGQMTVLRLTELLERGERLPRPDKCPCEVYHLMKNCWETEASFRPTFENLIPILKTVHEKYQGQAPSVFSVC

| SMILES | IC50 |
| --- | --- |
| COCCn1nc(C(=O)NCCC(F)(F)F)c2c1CCN(c1ncnc3[nH]ccc13)C2 [Compound 104] | > 2000 nM |
| O=C(NCCC(F)(F)F)c1nn(Cc2ccncc2)c2c1CN(c1ncnc3[nH]ccc13)CC2 [Compound 105] | > 2000 nM |
| O=C(NCC(F)(F)F)c1noc2c1CN(c1ncnc3[nH]ccc13)CC2 [Compound 178] | 500 to 2000 nM |

Results, then the compound that gave them:

| IC50 | SMILES |
| --- | --- |
| > 2000 nM | CCS(=O)(=O)n1nc(C(=O)NCCC(F)(F)F)c2c1CCN(c1ncnc3[nH]ccc13)C2 [Compound 102] |
| > 2000 nM | O=C(NCCC(F)(F)F)c1nn(C(=O)CCc2ccccc2)c2c1CN(c1ncnc3[nH]ccc13)CC2 [Compound 103] |

biological target: T2, JAK2 (Homo sapiens, UniProt O60674); assay: Inhibition of JAK2 kinase, LANCE Ultra TR-FRET assay; format: biochemical; details: 2x ATP 24 μM, 15 min pre-incubation, 90 min reaction, 23° C.
T2 construct: purchased Invitrogen PV4210
Protocol: as §1, §2, §3, §4, §5, §6, §7

T2 sequence (O60674 whole entry): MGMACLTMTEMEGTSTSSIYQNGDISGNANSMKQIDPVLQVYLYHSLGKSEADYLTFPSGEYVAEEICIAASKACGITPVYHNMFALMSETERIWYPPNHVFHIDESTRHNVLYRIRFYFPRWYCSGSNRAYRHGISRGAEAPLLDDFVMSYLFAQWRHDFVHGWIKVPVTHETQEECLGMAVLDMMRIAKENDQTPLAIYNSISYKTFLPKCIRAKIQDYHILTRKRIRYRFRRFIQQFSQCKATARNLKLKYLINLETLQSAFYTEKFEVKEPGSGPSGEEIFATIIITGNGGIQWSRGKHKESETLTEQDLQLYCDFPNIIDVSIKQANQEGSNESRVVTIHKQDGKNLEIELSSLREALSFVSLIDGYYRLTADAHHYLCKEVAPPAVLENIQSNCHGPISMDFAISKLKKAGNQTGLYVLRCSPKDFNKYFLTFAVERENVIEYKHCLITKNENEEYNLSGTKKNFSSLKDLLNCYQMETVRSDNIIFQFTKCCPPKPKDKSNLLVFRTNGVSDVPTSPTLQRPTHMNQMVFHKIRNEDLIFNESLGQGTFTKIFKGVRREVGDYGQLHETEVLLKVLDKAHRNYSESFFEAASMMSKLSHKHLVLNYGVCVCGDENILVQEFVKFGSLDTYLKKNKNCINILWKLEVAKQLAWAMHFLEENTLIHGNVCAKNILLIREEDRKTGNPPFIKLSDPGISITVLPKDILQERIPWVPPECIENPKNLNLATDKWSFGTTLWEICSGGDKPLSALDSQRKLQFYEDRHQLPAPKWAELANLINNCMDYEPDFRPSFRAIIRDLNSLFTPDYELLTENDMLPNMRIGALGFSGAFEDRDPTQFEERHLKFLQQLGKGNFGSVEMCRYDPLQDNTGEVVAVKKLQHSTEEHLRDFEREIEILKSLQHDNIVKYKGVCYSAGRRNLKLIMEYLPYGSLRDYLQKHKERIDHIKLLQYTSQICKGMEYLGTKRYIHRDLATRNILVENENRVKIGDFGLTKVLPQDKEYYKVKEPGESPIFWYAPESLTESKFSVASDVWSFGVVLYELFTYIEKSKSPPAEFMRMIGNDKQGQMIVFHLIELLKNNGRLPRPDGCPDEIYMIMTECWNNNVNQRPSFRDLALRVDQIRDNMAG

| SMILES | IC50 |
| --- | --- |
| COCCn1nc(C(=O)NCCC(F)(F)F)c2c1CCN(c1ncnc3[nH]ccc13)C2 [Compound 104] | 100 to 500 nM |
| O=C(NCCC(F)(F)F)c1nn(Cc2ccncc2)c2c1CN(c1ncnc3[nH]ccc13)CC2 [Compound 105] | 100 to 500 nM |
| O=C(NCC(F)(F)F)c1noc2c1CN(c1ncnc3[nH]ccc13)CC2 [Compound 178] | < 100 nM |

Other lines, results leading:

| IC50 | SMILES |
| --- | --- |
| 100 to 500 nM | CCS(=O)(=O)n1nc(C(=O)NCCC(F)(F)F)c2c1CCN(c1ncnc3[nH]ccc13)C2 [Compound 102] |
| 100 to 500 nM | O=C(NCCC(F)(F)F)c1nn(C(=O)CCc2ccccc2)c2c1CN(c1ncnc3[nH]ccc13)CC2 [Compound 103] |

biological target: T3, JAK3 (Homo sapiens, UniProt P52333); assay: Inhibition of JAK3 kinase, LANCE Ultra TR-FRET assay; format: biochemical; details: 2x ATP 8 μM, 15 min pre-incubation, 90 min reaction, 23° C.
T3 construct: purchased Invitrogen PV4080
T3 sequence (P52333 1-1124): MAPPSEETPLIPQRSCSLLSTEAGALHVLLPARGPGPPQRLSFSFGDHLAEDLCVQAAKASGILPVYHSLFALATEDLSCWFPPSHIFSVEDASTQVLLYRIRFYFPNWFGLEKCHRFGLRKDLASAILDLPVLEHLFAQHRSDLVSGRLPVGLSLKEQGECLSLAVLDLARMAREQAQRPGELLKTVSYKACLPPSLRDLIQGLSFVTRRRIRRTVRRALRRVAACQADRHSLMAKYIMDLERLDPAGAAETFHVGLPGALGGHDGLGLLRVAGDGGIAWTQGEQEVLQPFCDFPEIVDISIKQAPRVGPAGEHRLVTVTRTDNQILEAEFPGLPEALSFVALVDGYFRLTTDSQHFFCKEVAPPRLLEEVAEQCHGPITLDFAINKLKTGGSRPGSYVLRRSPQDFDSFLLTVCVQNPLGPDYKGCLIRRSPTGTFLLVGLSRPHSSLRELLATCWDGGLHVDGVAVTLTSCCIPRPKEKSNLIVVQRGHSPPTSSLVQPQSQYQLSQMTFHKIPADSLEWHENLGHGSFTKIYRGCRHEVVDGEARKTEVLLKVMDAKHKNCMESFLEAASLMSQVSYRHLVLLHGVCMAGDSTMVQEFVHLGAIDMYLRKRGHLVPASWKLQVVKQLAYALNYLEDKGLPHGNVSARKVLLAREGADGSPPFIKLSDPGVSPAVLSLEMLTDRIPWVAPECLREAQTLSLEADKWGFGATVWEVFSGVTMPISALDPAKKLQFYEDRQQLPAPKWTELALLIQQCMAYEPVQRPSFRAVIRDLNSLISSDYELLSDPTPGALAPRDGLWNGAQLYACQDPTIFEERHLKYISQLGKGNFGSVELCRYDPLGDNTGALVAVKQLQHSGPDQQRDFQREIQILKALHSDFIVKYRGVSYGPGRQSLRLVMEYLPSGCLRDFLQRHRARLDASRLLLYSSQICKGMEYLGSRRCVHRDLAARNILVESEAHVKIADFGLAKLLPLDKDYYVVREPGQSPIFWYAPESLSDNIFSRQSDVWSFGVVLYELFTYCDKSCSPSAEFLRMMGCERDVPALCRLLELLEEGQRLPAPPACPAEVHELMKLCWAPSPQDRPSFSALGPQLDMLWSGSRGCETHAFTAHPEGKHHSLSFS
Protocol: as §1, §2, §3, §4, §5, §6, §7

| SMILES | IC50 |
| --- | --- |
| COCCn1nc(C(=O)NCCC(F)(F)F)c2c1CCN(c1ncnc3[nH]ccc13)C2 [Compound 104] | < 100 nM |
| O=C(NCCC(F)(F)F)c1nn(Cc2ccncc2)c2c1CN(c1ncnc3[nH]ccc13)CC2 [Compound 105] | < 100 nM |
| O=C(NCC(F)(F)F)c1noc2c1CN(c1ncnc3[nH]ccc13)CC2 [Compound 178] | < 100 nM |

Other lines, results leading:

| IC50 | SMILES |
| --- | --- |
| < 100 nM | CCS(=O)(=O)n1nc(C(=O)NCCC(F)(F)F)c2c1CCN(c1ncnc3[nH]ccc13)C2 [Compound 102] |
| < 100 nM | O=C(NCCC(F)(F)F)c1nn(C(=O)CCc2ccccc2)c2c1CN(c1ncnc3[nH]ccc13)CC2 [Compound 103] |

biological target: T4, JAK1 (Homo sapiens, UniProt P23458); assay: Inhibition of JAK1 kinase, LANCE Ultra TR-FRET assay; format: biochemical; details: 2 nM JAK1, 2x ATP 76 μM, 15 min pre-incubation, 90 min reaction, 23° C.
T4 construct: purchased Invitrogen PV4775
Protocol: as §1, §2, §3, §4, §5, §6, §7

T4 sequence (P23458 whole entry): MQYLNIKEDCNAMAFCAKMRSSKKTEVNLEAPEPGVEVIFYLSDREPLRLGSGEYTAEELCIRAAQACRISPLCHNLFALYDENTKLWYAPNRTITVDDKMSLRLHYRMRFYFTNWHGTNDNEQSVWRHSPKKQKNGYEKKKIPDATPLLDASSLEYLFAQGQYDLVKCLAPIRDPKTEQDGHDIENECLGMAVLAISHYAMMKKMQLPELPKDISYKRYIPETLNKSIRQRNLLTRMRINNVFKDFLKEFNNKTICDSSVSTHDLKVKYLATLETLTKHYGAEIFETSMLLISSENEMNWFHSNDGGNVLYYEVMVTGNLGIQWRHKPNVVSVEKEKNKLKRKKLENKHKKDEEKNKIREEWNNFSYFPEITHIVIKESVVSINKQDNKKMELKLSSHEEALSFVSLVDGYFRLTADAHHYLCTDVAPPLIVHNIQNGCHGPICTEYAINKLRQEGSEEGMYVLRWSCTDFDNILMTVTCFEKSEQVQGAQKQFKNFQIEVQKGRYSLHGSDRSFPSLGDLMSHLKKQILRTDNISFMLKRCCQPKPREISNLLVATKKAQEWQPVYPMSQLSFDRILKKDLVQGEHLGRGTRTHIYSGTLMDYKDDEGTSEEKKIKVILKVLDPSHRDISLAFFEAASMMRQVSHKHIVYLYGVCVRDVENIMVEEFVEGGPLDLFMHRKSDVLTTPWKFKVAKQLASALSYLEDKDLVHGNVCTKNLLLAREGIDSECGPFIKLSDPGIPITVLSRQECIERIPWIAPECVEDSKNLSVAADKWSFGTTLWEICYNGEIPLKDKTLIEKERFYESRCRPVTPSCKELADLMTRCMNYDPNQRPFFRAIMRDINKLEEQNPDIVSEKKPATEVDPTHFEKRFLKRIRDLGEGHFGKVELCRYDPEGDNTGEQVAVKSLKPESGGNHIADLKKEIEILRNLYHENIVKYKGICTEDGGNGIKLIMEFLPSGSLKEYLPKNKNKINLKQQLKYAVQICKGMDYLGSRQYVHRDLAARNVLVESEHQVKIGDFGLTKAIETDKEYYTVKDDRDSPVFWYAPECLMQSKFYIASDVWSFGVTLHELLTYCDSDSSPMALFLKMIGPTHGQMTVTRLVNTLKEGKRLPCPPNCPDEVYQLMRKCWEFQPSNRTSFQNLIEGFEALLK

| SMILES | IC50 |
| --- | --- |
| COCCn1nc(C(=O)NCCC(F)(F)F)c2c1CCN(c1ncnc3[nH]ccc13)C2 [Compound 104] | 100 to 500 nM |
| O=C(NCCC(F)(F)F)c1nn(Cc2ccncc2)c2c1CN(c1ncnc3[nH]ccc13)CC2 [Compound 105] | 100 to 500 nM |
| O=C(NCC(F)(F)F)c1noc2c1CN(c1ncnc3[nH]ccc13)CC2 [Compound 178] | < 100 nM |

Next, values leading:

| IC50 | SMILES |
| --- | --- |
| 500 to 2000 nM | CCS(=O)(=O)n1nc(C(=O)NCCC(F)(F)F)c2c1CCN(c1ncnc3[nH]ccc13)C2 [Compound 102] |
| 100 to 500 nM | O=C(NCCC(F)(F)F)c1nn(C(=O)CCc2ccccc2)c2c1CN(c1ncnc3[nH]ccc13)CC2 [Compound 103] |
